The compounds below were run against T1, PD-1/PD-L1 protein/protein interaction (Homo sapiens, UniProt Q9NZQ7) (assay: PD-1/PD-L1 homogenous time-resolved fluorescence (HTRF) binding assay).
T1 construct: Recombinant human PD-L1 protein (19-238) with a His-tag at the C-terminus; purchased AcroBiosystems PD1-H5229 (PD-L1); PD1-H5257 (PD-1)
T1 sequence (Q9NZQ7 19-238): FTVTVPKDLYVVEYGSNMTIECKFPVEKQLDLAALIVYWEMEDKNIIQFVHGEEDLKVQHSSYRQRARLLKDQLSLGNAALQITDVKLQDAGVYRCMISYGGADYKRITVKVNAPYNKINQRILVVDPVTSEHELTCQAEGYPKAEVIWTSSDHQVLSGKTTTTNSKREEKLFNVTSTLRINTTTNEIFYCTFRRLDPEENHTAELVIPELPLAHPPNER
Description: Resolved Fluorescence (HTRF) Binding Assay
The assays were conducted in a standard black 384-well polystyrene plate with a final volume of […]. Inhibitors were first serially diluted in DMSO and then added to the plate wells before the addition of other reaction components. The final concentration of DMSO in the assay was 1%. The assays were carried out at 25° C. in the PBS buffer (pH 7.4) with 0.05% Tween-20 and 0.1% BSA. […] Plates were centrifuged and proteins were preincubated with inhibitors for 40 min. The incubation was followed by the addition of 10 μL of HTRF detection buffer supplemented with Europium cryptate-labeled anti-human IgG (PerkinElmer-AD0212) specific for Fc and anti-His antibody conjugated to SureLight®—Allophycocyanin (APC, PerkinElmer-AD0059H). After centrifugation, the plate was incubated at 25° C. for 60 min. […] Final concentrations in the assay were […] PD1, 10 nM PD-L1, 1 nM europium anti-human IgG and 20 nM anti-His-Allophycocyanin. IC50 determination was performed by fitting the curve of percent control activity versus the log of the inhibitor concentration using the GraphPad Prism 5.0 software.
`Cc1c(Nc2nccc3cc(CN4CCCCC4C(=O)O)cnc23)cccc1-c1cccc(OCCCNCC(=O)O)c1C` (centres unmarked) [Compound 28, 1-((8-((3′-(3-((carboxymethyl)amino)propoxy)-2,2′-dimethyl-[1,1′-biphenyl]-3-yl)amino)-1,7-naphthyridin-3-yl)methyl)piperidine-2-carboxylic acid] gave an IC50 of under 0.002 µM.
`Cc1c(Nc2nccc3cc(CN4CCCCC4C(=O)O)cnc23)cccc1-c1cccc(OCCCN2CCCC2C(=O)O)c1C` (centres unmarked) [Compound 29, 1-((8-((3′-(3-(2-carboxypyrrolidin-1-yl)propoxy)-2,2′-dimethyl-[1,1′-biphenyl]-3-yl)amino)-1,7-naphthyridin-3-yl)methyl)piperidine-2-carboxylic acid] gave an IC50 of 0.002 to 0.01 µM.
Work on `Cc1c(Nc2nccc3cc(CN4CCCCC4C(=O)O)cnc23)cccc1-c1cccc(OCCCN2CCC(C(=O)O)CC2)c1C` (centres unmarked) [Compound 30, 1-((8-((3′-(3-(4-carboxypiperidin-1-yl)propoxy)-2,2′-dimethyl-[1,1′-biphenyl]-3-yl)amino)-1,7-naphthyridin-3-yl)methyl)piperidine-2-carboxylic acid] yielded an IC50 of 0.002 to 0.01 µM.
`Cc1c(Nc2nccc3cc(CN4CCCCC4C(=O)O)cnc23)cccc1-c1cccc(OCCN2CCOCC2)c1C` (centres unmarked) [Compound 31, 1-((8-((2,2′-dimethyl-3′-(2-morpholinoethoxy)-[1,1′-biphenyl]-3-yl)amino)-1,7-naphthyridin-3-yl)methyl)piperidine-2-carboxylic acid] was tested, and the IC50 was 0.01 to 0.15 µM.
For `Cc1c(Nc2nccc3cc(CN4CCCCC4C(=O)O)cnc23)cccc1-c1ccc2ccc(OCCN3CCOCC3)cc2c1` (centres unmarked) [Compound 32, 1-((8-((2-methyl-3-(7-(2-morpholinoethoxy)naphthalen-2-yl)phenyl)amino)-1,7-naphthyridin-3-yl)methyl)piperidine-2-carboxylic acid], the IC50 was over 0.15 µM.
In the case of `Cc1c(Nc2nccc3cc(CN4CCCCC4C(=O)O)cnc23)cccc1-c1cccc(OCCCNC2COC2)c1` (centres unmarked) [Compound 33, 1-((8-((2-methyl-3′-(3-(oxetan-3-ylamino)propoxy)-[1,1′-biphenyl]-3-yl)amino)-1,7-naphthyridin-3-yl)methyl)piperidine-2-carboxylic acid], the IC50 is reported as under 0.002 µM.
`Cc1c(Nc2nccc3cc(CN4CCCCC4C(=O)O)cnc23)cccc1-c1cccc2c1ccn2CCCN1CCOCC1` (centres unmarked) [Compound 34, 1-((8-((2-methyl-3-(1-(3-morpholinopropyl)-1H-indol-4-yl)phenyl)amino)-1,7-naphthyridin-3-yl)methyl)piperidine-2-carboxylic acid] showed an IC50 of over 0.15 µM.
In the case of `Cc1c(Nc2nccc3cc(CN4CCCCC4C(=O)O)cnc23)cccc1-c1ccc2cc(CCN3CCOCC3)[nH]c2c1` (centres unmarked) [Compound 35, 1-((8-((2-methyl-3-(2-(2-morpholinoethyl)-1H-indol-6-yl)phenyl)amino)-1,7-naphthyridin-3-yl)methyl)piperidine-2-carboxylic acid], the IC50 is reported as over 0.15 µM.
In the case of `Cc1c(Nc2nccc3cc(CN4CCCCC4C(=O)O)cnc23)cccc1-c1cccc(OCCCN2CCOCC2)c1` (centres unmarked) [Compound 36, 1-((8-((2-methyl-3′-(3-morpholinopropoxy)-[1,1′-biphenyl]-3-yl)amino)-1,7-naphthyridin-3-yl)methyl)piperidine-2-carboxylic acid], the IC50 is reported as 0.002 to 0.01 µM.
Compound `Cc1c(Nc2nccc3cc(CN4CCCCC4C(=O)O)cnc23)cccc1-c1cccc(OCCCN2CCOCC2)c1F` (centres unmarked) [Compound 37, 1-((8-((2′-fluoro-2-methyl-3′-(3-morpholinopropoxy)-[1,1′-biphenyl]-3-yl)amino)-1,7-naphthyridin-3-yl)methyl)piperidine-2-carboxylic acid] has an IC50 of 0.002 to 0.01 µM.
With `Cc1c(Nc2nccc3cc(CN4CCCCC4C(=O)O)cnc23)cccc1-c1cccc(OCCCN2CCOCC2)c1Cl` (centres unmarked) [Compound 38, 1-((8-((2′-chloro-2-methyl-3′-(3-morpholinopropoxy)-[1,1′-biphenyl]-3-yl)amino)-1,7-naphthyridin-3-yl)methyl)piperidine-2-carboxylic acid] the IC50 was 0.002 to 0.01 µM.
Work on `Cc1c(Nc2nccc3cc(CN4CCCCC4C(=O)O)cnc23)cccc1-c1cccc(OCCCN2CCOCC2)c1C#N` (centres unmarked) [Compound 39, 1-((8-((2′-cyano-2-methyl-3′-(3-morpholinopropoxy)-[1,1′-biphenyl]-3-yl)amino)-1,7-naphthyridin-3-yl)methyl)piperidine-2-carboxylic acid] yielded an IC50 of 0.002 to 0.01 µM.
`Cc1c(Nc2nccc3cc(CN4CCCCC4C(=O)O)cnc23)cccc1-c1ccc(F)c(OCCCN2CCOCC2)c1` (centres unmarked) [Compound 40, 1-((8-((4′-fluoro-2-methyl-3′-(3-morpholinopropoxy)-[1,1′-biphenyl]-3-yl)amino)-1,7-naphthyridin-3-yl)methyl)piperidine-2-carboxylic acid] showed an IC50 of 0.002 to 0.01 µM.
`Cc1ccc(-c2cccc(Nc3nccc4cc(CN5CCCCC5C(=O)O)cnc34)c2C)c(C)c1OCCCN1CCOCC1` (centres unmarked) [Compound 41, 1-((8-((2,2′,4′-trimethyl-3′-(3-morpholinopropoxy)-[1,1′-biphenyl]-3-yl)amino)-1,7-naphthyridin-3-yl)methyl)piperidine-2-carboxylic acid] was tested, and the IC50 was over 0.15 µM.
For `Cc1ccc(-c2cccc(Nc3nccc4cc(CN5CCCCC5C(=O)O)cnc34)c2C)cc1OCCCN1CCOCC1` (centres unmarked) [Compound 42, 1-((8-((2,4′-dimethyl-3′-(3-morpholinopropoxy)-[1,1′-biphenyl]-3-yl)amino)-1,7-naphthyridin-3-yl)methyl)piperidine-2-carboxylic acid], the IC50 was 0.002 to 0.01 µM.
For `Cc1c(Nc2nccc3cc(CN4CCCCC4C(=O)O)cnc23)cccc1-c1ccc(Cl)c(OCCCN2CCOCC2)c1` (centres unmarked) [Compound 43, 1-((8-((4′-chloro-2-methyl-3′-(3-morpholinopropoxy)-[1,1′-biphenyl]-3-yl)amino)-1,7-naphthyridin-3-yl)methyl)piperidine-2-carboxylic acid], the IC50 was 0.002 to 0.01 µM.
Compound `Cc1c(Nc2nccc3cc(CNCC(=O)O)cnc23)cccc1-c1ccc(Cl)c(OCCCN2CCOCC2)c1` [Compound 44, ((8-((4′-chloro-2-methyl-3′-(3-morpholinopropoxy)-[1,1′-biphenyl]-3-yl)amino)-1,7-naphthyridin-3-yl)methyl)glycine] has an IC50 of under 0.002 µM.
`Cc1c(Nc2nccc3cc(CNCC(=O)O)cnc23)cccc1-c1cccc(OCCCN2CCOCC2)c1Cl` [Compound 45, ((8-((2′-chloro-2-methyl-3′-(3-morpholinopropoxy)-[1,1′-biphenyl]-3-yl)amino)-1,7-naphthyridin-3-yl)methyl)glycine] was tested, and the IC50 was under 0.002 µM.
`Cc1c(Nc2nccc3cc(CNCC(=O)O)cnc23)cccc1-c1cncc(OCCCN2CCOCC2)c1C` [Compound 46, ((8-((2-methyl-3-(4-methyl-5-(3-morpholinopropoxy)pyridin-3-yl)phenyl)amino)-1,7-naphthyridin-3-yl)methyl)glycine] was tested, and the IC50 was 0.01 to 0.15 µM.
With `Cc1c(COCCN2CCOCC2)cccc1-c1cccc(Nc2nccc3cc(CN4CCCCC4C(=O)O)cnc23)c1C` (centres unmarked) [Compound 47, 1-((8-((2,2′-dimethyl-3′-((2-morpholinoethoxy)methyl)-[1,1′-biphenyl]-3-yl)amino)-1,7-naphthyridin-3-yl)methyl)piperidine-2-carboxylic acid] the IC50 was under 0.002 µM.
`Cc1c(NCCCN2CCOCC2)cccc1-c1cccc(Nc2nccc3cc(CN4CCCCC4C(=O)O)cnc23)c1C` (centres unmarked) [Compound 48, 1-((8-((2,2′-dimethyl-3′-((3-morpholinopropyl)amino)-[1,1′-biphenyl]-3-yl)amino)-1,7-naphthyridin-3-yl)methyl)piperidine-2-carboxylic acid] was tested, and the IC50 was 0.002 to 0.01 µM.
In the case of `Cc1c(NC(=O)CCN2CCOCC2)cccc1-c1cccc(Nc2nccc3cc(CN4CCCCC4C(=O)O)cnc23)c1C` (centres unmarked) [Compound 49, 1-((8-((2,2′-dimethyl-3′-(3-morpholinopropanamido)-[1,1′-biphenyl]-3-yl)amino)-1,7-naphthyridin-3-yl)methyl)piperidine-2-carboxylic acid], the IC50 is reported as 0.002 to 0.01 µM.
`Cc1c(Nc2nccc3cc(CN4CCCCC4C(=O)O)cnc23)cccc1-c1cccc(N(C)C(=O)CCN2CCOCC2)c1C` (centres unmarked) [Compound 50, 1-((8-((2,2′-dimethyl-3′-(N-methyl-3-morpholinopropanamido)-[1,1′-biphenyl]-3-yl)amino)-1,7-naphthyridin-3-yl)methyl)piperidine-2-carboxylic acid] showed an IC50 of over 0.15 µM.
Compound `Cc1c(NC(=O)NCCNCCO)cccc1-c1cccc(Nc2nccc3cc(CN4CCCCC4C(=O)O)cnc23)c1C` (centres unmarked) [Compound 51, 1-((8-((3′-(3-(2-((2-hydroxyethyl)amino)ethyl)ureido)-2,2′-dimethyl-[1,1′-biphenyl]-3-yl)amino)-1,7-naphthyridin-3-yl)methyl)piperidine-2-carboxylic acid] has an IC50 of over 0.15 µM.
For `Cc1c(Nc2nccc3cc(CN4CCCCC4C(=O)O)cnc23)cccc1-c1cccc(N(C)CCCN2CCOCC2)c1C` (centres unmarked) [Compound 52, 1-((8-((2,2′-dimethyl-3′-(methyl(3-morpholinopropyl)amino)-[1,1′-biphenyl]-3-yl)amino)-1,7-naphthyridin-3-yl)methyl)piperidine-2-carboxylic acid], the IC50 was over 0.15 µM.
With `Cc1c(NC(=O)NCCN2CCOCC2)cccc1-c1cccc(Nc2nccc3cc(CN4CCCCC4C(=O)O)cnc23)c1C` (centres unmarked) [Compound 53, 1-((8-((2,2′-dimethyl-3′-(3-(2-morpholinoethyl)ureido)-[1,1′-biphenyl]-3-yl)amino)-1,7-naphthyridin-3-yl)methyl)piperidine-2-carboxylic acid] the IC50 was over 0.15 µM.

From patent publication US20210269440A1 (BETTA PHARMACEUTICALS CO., LTD, priority 2018, published 2021)
